Results reported in ChEMBL document CHEMBL1149067, “Ochrindoles A-D: new bis-indolyl benzenoids from the sclerotia of Aspergillus ochraceus NRRL 3519” (J Nat Prod, 1994).

Key:
Helicoverpa zea = experiment: Toxicity against Helicoverpa zea larvae assessed as weight gain relative to control; type: organism-based; conditions: in vivo
Carpophilus = experiment: Toxicity against Carpophilus hemipterus assessed as feeding reduction at 200 ppm relative to control; type: organism-based; set-up: scale not given: the % may be the effect or the level left; conditions: in vivo
Bacillus subtilis = experiment: Antimicrobial activity against Bacillus subtilis at 100 ug/disk by standard disk assay; type: functional; conditions: read-out: IZ

SMILES | Activity (Helicoverpa zea) [%] | Activity (Carpophilus) [%] | zone of inhibition at 100 µg/disc (Bacillus subtilis) [mm]
COc1c(CC=C(C)C)c(-c2c[nH]c3ccccc23)c(OC)c(O)c1-c1c[nH]c2ccccc12 [OCHRINDOLE A] | 30 | 20 | 15
COc1c(C/C=C(\C)CO)c(-c2c[nH]c3ccccc23)c(OC)c(O)c1-c1c[nH]c2ccccc12 [OCHRINDOLE B] |  |  | 15
COc1c(CC=C(C)C)c(-c2c[nH]c3ccccc23)c(O)c(O)c1-c1c[nH]c2ccccc12 [OCHRINDOLE C] |  |  | 15
CC(C)=CCC1=C(c2c[nH]c3ccccc23)C(=O)C(O)=C(c2c[nH]c3ccccc23)C1=O [OCHRINDOLE D] |  |  | 15
